Experimental findings from patent US20240277606A1, “METHODS FOR THE PULSED DELIVERY OF BIOACTIVE AGENTS” (University of Mississippi, priority 2021, published 2024) are described below.

In one data set the target is T1, 5HT2A receptor (Homo sapiens, UniProt P28223).
T1 construct: host or cells: Chem-1 cells (parental control HTSCHEM-1RTA)
The data set is described as follows: In vitro bioactivity: calcium flux (Fluo-8) in 5HT2A serotonin receptor cells. The data set is classed as cell-based. To be noted: 5 μM, 1 hr treatment, versus PBS control. Here is the method: Briefly, 5HT2A serotonin receptor cells (Millipore Sigma, HTS082RTA) and chem-1 parental control cells (Millipore Sigma, HTSCHEM-1RTA) were seeded in 96 well plates (5000 cells-100 μl/well of 50,000 cells/ml solution) and allowed to adhere overnight. […] After 1 hr, Fluo-8 green dye solution (Abcam, ab112129) was added to the cells, incubated 30 min at 37° C., and then incubated for 30 minutes at room temperature, followed by fluorescence measurements on a microplate reader.
In general terms: Calcium assays in cells follow changes in intracellular calcium, usually with a dye or a luminescent sensor.

A short description of data set [1]: In vitro release from single-layered CAPP films. The format is physicochemical. The conditions noted are these: for release rate compared with Rhodamine dye: from 0.1 mm thick CAPP films. How it is done:
Next, drug release from single-layered CAPP films of 0.1, 0.2, 0.3, and 0.4 mm thickness was quantified. Drug release was measured by encapsulating Rhodamine fluorescent dye within the films and closely matched the erosion times reported above. Complete release from 0.1 mm thick films occurred after ˜18 hrs (FIG. 4A). Complete release from 0.2 mm thick films occurred after ˜36 hrs (FIG. 4A). Complete release from 0.3 mm thick films occurred after ˜60 hrs (FIG. 4A). Complete release from 0.4 mm thick films occurred after ˜78 hrs (FIG. 4A). Importantly, release of 5HT2A agonists from 0.1 mm thick CAPP films was also measured, since 0.1 mm thick films are used to encapsulate drug in the multilayered films.

Data set [2] can be described thus: Pilot pharmacokinetics of DOI from subcutaneously implanted 0.1 mm CAPP films. The data set is classed as in vivo. The conditions noted are these: DOI-loaded 0.1 mm CAPP film, subcutaneous, CD-1 mice. An excerpt: Single-layered films loaded with DOI and blank single-layered films have been constructed. These films were sterilized and implanted subcutaneously in the dorsal flap of CD-1 mice in an initial pilot experiment. This pilot experiment enabled optimization of blood collection time points, ensure the ability to detect DOI with current bioanalytical techniques, and will inform the design of the rest of the in vivo studies. Briefly, films were implanted subcutaneously followed by blood and organ collection at 8, 16, and 24 hrs to monitor blood pharmacokinetics of DOI released from the 0.1 mm thick CAPP films in vivo. […] The concentration of DOI in the blood of mice returned to baseline by 16 hrs and remained at baseline through 24 hrs. […] This pilot experiment was repeated to: 1) sample at earlier time points for better overall fidelity and 2) to also determine the concentration of DOI in major organs, particularly the brain. […] As expected based on the plasma pharmacokinetics, it was observed that the peak concentration of DOI in the brain, liver, and kidneys was ˜2-4 hrs (FIGS. 13C-13F). […] The release profile of the same dose of DOI from 0.4 mm thick films can also be measured, as can the release profile of DOI from multilayered CAPP films with three DOI-loaded 0.1 mm thick films separated by 0.4 mm thick blank films.

Data set [3] can be described thus: Follow-up plasma and organ pharmacokinetics of DOI from subcutaneously implanted 0.1 mm CAPP films. The format is in vivo, CD-1 mice. To be noted: post-implantation of 0.1 mm thick CAPP films, subcutaneous. The source says: Single-layered films loaded with DOI and blank single-layered films have been constructed. These films were sterilized and implanted subcutaneously in the dorsal flap of CD-1 mice in an initial pilot experiment. This pilot experiment enabled optimization of blood collection time points, ensure the ability to detect DOI with current bioanalytical techniques, and will inform the design of the rest of the in vivo studies. Briefly, films were implanted subcutaneously followed by blood and organ collection at 8, 16, and 24 hrs to monitor blood pharmacokinetics of DOI released from the 0.1 mm thick CAPP films in vivo. […] The concentration of DOI in the blood of mice returned to baseline by 16 hrs and remained at baseline through 24 hrs. […] This pilot experiment was repeated to: 1) sample at earlier time points for better overall fidelity and 2) to also determine the concentration of DOI in major organs, particularly the brain. […] As expected based on the plasma pharmacokinetics, it was observed that the peak concentration of DOI in the brain, liver, and kidneys was ˜2-4 hrs (FIGS. 13C-13F). DOI was cleared from the plasma as well as the brain, liver, and kidneys by ˜12 hrs post-implantation. The release profile of the same dose of DOI from 0.4 mm thick films can also be measured, as can the release profile of DOI from multilayered CAPP films with three DOI-loaded 0.1 mm thick films separated by 0.4 mm thick blank films.

The nature of data set [4]: Pulsed delivery of DOI from subcutaneously implanted multilayer CAPP films coated with PSA. The format is in vivo. To be noted: seven-layer CAPP film, subcutaneous. An excerpt:
The multilayered CAPP films used for this study had seven layers, where layers 1, 4, and 7 were DOI-loaded 0.1 mm thick CAPP films at 70:30 CAP:P ratio and layers 2, 3, 5, and 6 were unloaded (Blank) 0.4 mm thick CAPP films at 90:10 CAP:P ratio. The layered devices were then coated on all sides but one (the top of layer 1) with the biocompatible polymer polysebacic acid (PSA). After implantation, the anticipated pulsed release schedule of DOI was observed, with three distinct DOI pulses where peak concentrations in the plasma occurred at ˜2, 12, and 24 hrs post-implantation.

Data set [5] is described as follows: In vitro release kinetics from multilayered CAPP films (Rhodamine as model drug). The format is physicochemical. The source says: The layering strategy (i.e., alternating 0.1 mm and 0.4 mm films) was chosen based on the results in FIGS. 4A-4B showing that 0.1 mm films erode in ˜24 hrs while 0.4 mm films erode in ˜70-80 hrs. Additionally, each layer was engineered to degrade by either bulk or surface erosion based on the function of that particular layer. The drug-loaded, 0.1 mm thick layers should degrade via bulk erosion such that the drug is rapidly released from these layers in a bolus. However, the “blank” 0.4 mm layers should erode via surface erosion to ensure gradual degradation of the blank layer from “top-to-bottom” to maintain ordered pulses of release over time. Therefore, the absorption of water into polymeric films composed of a range of CAP:P ratios was examined, since bulk erosion occurs in materials where the rate of water absorption is greater than the degradation rate. By contrast, surface erosion occurs in materials where the rate of degradation is greater than the rate of water absorption into the material. […] Therefore, multilayered films with 0.1 mm drug-loaded layers composed of 70:30 (bulk-eroding) CAPP films and 0.4 mm blank layers composed of 90:10 (surface eroding) CAPP films were produced. Lastly, the erosion time for CAPP films of CAP:P ratios varying from 70:30-90:10 was examined to inform the construction of multilayer devices that are to be composed of both 70:30 and 90:10 CAPP films. […] As film thickness increases, erosion time of the films increases proportionally.
We constructed multilayer CAPP films of alternating 0.1 mm bulk eroding, drug-loaded layers and 0.4 mm surface eroding, blank layers and observed drug release kinetics from these films using Rhodamine as a model drug. […] However, in these preliminary results the third drug pulse is not obvious and the gaps between pulses have some variability. A new layering design was implemented to counter these shortcomings; including adding two “blank” layers between each drug-loaded film, as well as having “blank” layers on the bottom of the device to maintain device structure through the third drug pulse.

Where [6] appears, read: multilayer film, alternating 0.1 mm drug-loaded and 0.4 mm blank layers.

Some results are limits rather than exact numbers.

T1 sequence (P28223 whole entry): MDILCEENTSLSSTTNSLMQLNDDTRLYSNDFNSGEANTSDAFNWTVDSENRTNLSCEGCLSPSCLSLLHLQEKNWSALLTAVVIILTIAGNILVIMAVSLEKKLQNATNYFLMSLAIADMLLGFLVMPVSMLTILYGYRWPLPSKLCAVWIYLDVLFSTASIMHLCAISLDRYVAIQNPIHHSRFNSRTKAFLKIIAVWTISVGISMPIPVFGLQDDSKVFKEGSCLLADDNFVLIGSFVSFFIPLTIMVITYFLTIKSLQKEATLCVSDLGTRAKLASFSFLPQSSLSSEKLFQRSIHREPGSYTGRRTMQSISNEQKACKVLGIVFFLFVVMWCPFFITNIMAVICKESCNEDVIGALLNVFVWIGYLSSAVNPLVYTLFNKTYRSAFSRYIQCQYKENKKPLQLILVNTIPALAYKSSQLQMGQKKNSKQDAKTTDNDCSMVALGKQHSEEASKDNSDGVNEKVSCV

Turning to `CCN(CC)C(=O)[C@@H]1C=C2c3cccc4c3c(cn4C(=O)C3CC3)C[C@H]2N(C)C1` [1cp-LSD, N1-(cyclopropylmethanoyl)-lysergic acid diethylamide], the “calcium flux downstream of 5HT2A receptor activation” value at 5HT2A receptor is on record as “significant induction of calcium”.

Take `COc1cc(CC(C)N)c(OC)cc1I` (stereo not drawn) [DOI, 2,5-dimethoxy-4-iodoamphetamine]: in data set [1], the “release rate compared with Rhodamine dye” value is reported as “very similar rate”. Further, at 5HT2A receptor, the “calcium flux downstream of 5HT2A receptor activation” value is recorded as “significant induction of calcium”. The detection in blood result in data set [2] (8 hrs post-implantation) was “consistently detected”. Also, in data set [2] (remained at baseline through 24 hrs), the “time at which blood concentration returned to baseline” value was no more than 16 h. In addition, in data set [3], the “time by which cleared from plasma, brain, liver, and kidneys” value is roughly 12 h; the “time of peak concentration in brain, liver, and kidneys” value was in the range of 2 to 4 h; the “time of peak concentration in plasma” value is 2 h. In addition, in data set [4], the “concentration profile in brain, liver, and kidneys” value was “matched the pulsed profile of the blood plasma”. Besides, in data set [4] (post-implantation), the “time of peak plasma concentration, first pulse” value is roughly 2 h; the “time of peak plasma concentration, second pulse” value was roughly 12 h; the “time of peak plasma concentration, third pulse” value is roughly 24 h.

Regarding `CC(=O)Oc1cccc2[nH]cc(CCN(C)C)c12` [4-acetoxy DMT, O-acetylpsilocin], in data set [1], the “release rate compared with Rhodamine dye” value was “very similar rate”.

As for `CCN(CC)c1ccc2c(-c3ccccc3C(=O)O)c3ccc(=[N+](CC)CC)cc-3oc2c1` [Rhodamine, rhodamine B], the “time to complete release” value in data set [1] (from 0.1 mm thick single-layered CAPP film) is roughly 18 h; in data set [1] (from 0.2 mm thick single-layered CAPP film) it was roughly 36 h; in data set [1] (from 0.3 mm thick single-layered CAPP film), roughly 60 h; in data set [1] (from 0.4 mm thick single-layered CAPP film), roughly 78 h. Further, the “time of peak of first drug pulse” value in data set [5] (setting [6]) was 16 h. Besides, in data set [5] (setting [6]), the “time of peak of second drug pulse” value was found to be 72 h. For the same molecule, in data set [5] (setting [6]), the “time of peak of third drug pulse” value was roughly 120 h. For the same molecule, in data set [5] (second generation design, two blank layers between drug-loaded films and blank layers at bottom), the “spacing between three intermittent drug pulses” value is roughly 70 h.
